Here are results for twelve molecules from patent publication US20070191345A1, “3-((Hetero)arylsulfonyl)-8-'(aminoalkyl)oxyquinolines as 5-ht6 receptor antagonists for the treatment of cns disorders” (GLAXO GROUP LIMITED, priority 2004, published 2007).

Structures can show the parent of a compound that is named as a salt.

For one assay, the target named is T1, human cloned 5-HT6 receptors (Homo sapiens, UniProt P50406).
T1 construct: expressed in transfected cells; host or cells: HeLa cells expressing the cloned 5-HT6 receptor (washed membranes)
T1 sequence (P50406 whole entry): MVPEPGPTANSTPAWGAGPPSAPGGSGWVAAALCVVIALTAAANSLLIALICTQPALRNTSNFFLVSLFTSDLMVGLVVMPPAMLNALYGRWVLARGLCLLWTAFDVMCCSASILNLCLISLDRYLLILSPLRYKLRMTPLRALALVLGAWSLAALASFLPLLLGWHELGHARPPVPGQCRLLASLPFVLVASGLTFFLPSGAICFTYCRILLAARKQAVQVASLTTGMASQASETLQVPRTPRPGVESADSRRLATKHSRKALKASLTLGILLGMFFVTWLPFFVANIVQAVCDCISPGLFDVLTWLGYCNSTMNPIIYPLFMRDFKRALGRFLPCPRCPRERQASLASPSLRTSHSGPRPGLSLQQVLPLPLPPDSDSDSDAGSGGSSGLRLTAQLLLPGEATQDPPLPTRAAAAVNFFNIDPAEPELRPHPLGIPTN
Nature of the assay: Cyclase assay (cAMP production in washed membranes of HeLa 5HT6 cells, 5-HT stimulated).
Settings: not given
The assay is classed as biochemical. On the procedure:
Compounds of the invention may be tested for in vitro biological activity in accordance with the following cyclase assay:
0.5 μl of test compound in 100% dimethylsulfoxide (DMSO) was added to a white, solid 384 well assay plate (for dose response measurements the top of the concentration range is 7.5 μM final). 10 μl of washed membranes of HeLa 5HT6 cells (for preparation see WO 98/27081) in basic buffer (50 mM HEPES pH 7.4 (KOH), 10 mM MgCl2, 100 mM NaCl, 1 μl/ml 3-isobutyl-1-methylxanthine (IBMX) (Sigma-Aldrich)) was added to all wells followed by 10 μl 2×ATP buffer (100 μl/ml ATP and 1 μl/ml 3-Isobutyl-1-methylxanthine (IBMX) (Sigma-Aldrich)) with 5-HT (at a concentration equivalent to a dose response of 4×EC50). The resultant mixture was then incubated at room temperature for 30-45 minutes to allow cAMP production.
cAMP production was then measured using the DiscoveRx™ HitHunter™ chemiluminescence cAMP assay kit (DiscoveRx Corporation, 42501 Albrae Street, Fremont, Calif. 94538; Product Code: 90-0004L) or any other suitable cAMP measurement assay.
IC50 values were estimated from arbitrary designated unit (ADU) measurements from a Perkin Elmer Viewlux instrument using a four parameter logistic curve fit within EXCEL (Bowen, W. P. and Jerman, J. C. (1995), Nonlinear regression using spreadsheets. Trends in Pharmacol. Sci., 16, 413-417). Functional Ki values were calculated using the method of Cheng, Y. C. and Prussof, W. H. (Biochemical Pharmacol (1973) 22 3099-3108). pIC50 and fpKi are the negative log10 of the molar IC50 and functional Ki respectively.
Molecule `O=S(=O)(c1ccccc1)c1cnc2c(OCC3CC4CCN3CC4)cccc2c1` (stereo not drawn) [Example E22, 8-[(1-Azabicyclo[2.2.2]oct-2-ylmethyl)oxy]-3-(phenylsulfonyl) quinoline, hydrochloride] registered a Ki of less than 10 nM.

Staying with this assay, now noted: membranes of HeLa 5HT6 cells; 5-HT at 4×EC50; functional Ki calculated by Cheng-Prusoff from IC50; read-out: fpKi (functional pKi, antagonist potency for the 5-HT6 receptor) (converted).
Turning to `CN(C)CCOc1cccc2cc(S(=O)(=O)c3ccccc3)cnc12` [Example E1b, [2-(3-Phenylsulfonylquinoline-8-yloxy)ethyl]dimethylamine, hydrochloride], the Ki was less than 10 nM.

For the molecule `CN1CCC[C@H]1COc1cccc2cc(S(=O)(=O)c3ccccc3)cnc12` [Example E2b, 8-({[(2S)-1-Methyl-2-pyrrolidinyl]methyl}oxy)-3-(phenylsulfonyl) quinoline, hydrochloride], the Ki was less than 10 nM.

Regarding `O=S(=O)(c1ccccc1)c1cnc2c(OC[C@@H]3CCCN3)cccc2c1` [Example E3, 3-(Phenylsulfonyl)-8-{[(2S)-2-pyrrolidinylmethyl]oxy}quinoline, hydrochloride], the Ki is less than 10 nM.

Regarding `O=S(=O)(c1ccccc1)c1cnc2c(OCCN3CCCC3)cccc2c1` [Example E4, 3-(Phenylsulfonyl)-8-{[2-(1-pyrrolidinyl)ethyl]oxy}quinoline, hydrochloride], the Ki was less than 10 nM.

Regarding `O=S(=O)(c1ccccc1)c1cnc2c(O[C@@H]3CCNC3)cccc2c1` [Example E5, 3-(Phenylsulfonyl)-8-[(3R)-3-pyrrolidinyloxy]quinoline, hydrochloride], the Ki was less than 10 nM.

Regarding `CC(Oc1cccc2cc(S(=O)(=O)c3ccccc3)cnc12)C(C)N(C)C` (stereo not drawn) [Example E6, Dimethyl(1-methyl-2-{[(3-(phenylsulfonyl)-8-quinolinyl]oxy}propyl)amine, hydrochloride], the Ki was less than 10 nM.

For `O=S(=O)(c1ccccc1)c1cnc2c(OC[C@H]3CCCN3)cccc2c1` [Example E7, 3-(Phenylsulfonyl)-8-{[(2R)-2-pyrrolidinylmethyl]oxy}quinoline, hydrochloride], the Ki was less than 10 nM.

For the molecule `O=S(=O)(c1ccccc1)c1cnc2c(OC3CCCNC3)cccc2c1` (stereo not drawn) [Example E15, 3-(Phenylsulfonyl)-8-(3-piperidinyloxy) quinoline, hydrochloride], the Ki is less than 10 nM.

As for `CN1CC[C@@H](Oc2cccc3cc(S(=O)(=O)c4ccccc4)cnc23)C1` [Example E17, 8-[[(3R)-1-Methyl-3-pyrrolidinyl]oxy}-3-(phenylsulfonyl) quinoline, hydrochloride], the Ki is less than 10 nM.

For the molecule `CN1CCCC(Oc2cccc3cc(S(=O)(=O)c4ccccc4)cnc23)C1` (stereo not drawn) [Example E23, 8-[(1-Methyl-3-piperidinyl)oxy]-3-(phenylsulfonyl) quinoline, hydrochloride], the Ki is less than 10 nM.

For the molecule `O=S(=O)(c1ccccc1)c1cnc2c(OCC3COCCN3)cccc2c1` (stereo not drawn) [Example E24, 8-[(3-Morpholinylmethyl)oxy]-3-(phenylsulfonyl) quinoline, hydrochloride], the Ki was less than 10 nM.
